Some test systems named below: 786-0 renal; A549 NSCLC; ACHN renal; CCRF-CEM leukemia; K-562 leukemia; MDA-MB-231 breast; MDA-MB-435; NCI-H460 lung; SF-539 CNS; SW-620 colon.
Assay in all cases: NCI anticancer screen, dose series, 48 h

Values joined by “and” are separate entries in the source; they are usually repeats but may differ in a detail not shown here. Equal entries are not always repeated.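 Exposure lasted 48 hours, with cells grown in 96-well plates and compounds tested at five concentrations. GI50 marks 50% less growth. TGI marks complete inhibition of growth.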

Consider `CCCCCCC(C)CC(CCCCCC)NCCOC(=O)c1ccc([N+](=O)[O-])cc1` (configuration not stated), for which the TGI was 33.7 µM and 33.5 µM in the assay with 786-0 renal; 30.3 µM and 29.8 µM with A549 NSCLC; 30.5 µM and 28.1 µM in the assay on ACHN renal; 12.6 µM and 18.3 µM in the assay on CCRF-CEM leukemia; 1.84 µM in the assay on K-562 leukemia; 23.5 µM and 20.9 µM in the assay on MDA-MB-231 breast. Moreover, the TGI in the assay on MDA-MB-435 was 24.9 µM and 20.1 µM; in the assay with NCI-H460 lung, 29.4 µM and 18.4 µM; with SF-539 CNS, 30.1 µM and 27 µM; in the assay with SW-620 colon, 28.8 µM and 28.5 µM. Further, the GI50 is 11.6 µM and 5.17 µM with MDA-MB-435; 13.7 µM and 5.28 µM with NCI-H460 lung.

Consider `N#C/C(=C\c1cn(-c2ccccc2)c2ccccc12)C(=O)O`, for which the GI50 is 61.2 µM in the assay on 786-0 renal; 42.9 µM with A549 NSCLC; 44 µM in the assay on ACHN renal; 99 µM in the assay with CCRF-CEM leukemia; 71.7 µM with K-562 leukemia; 44.2 µM in the assay on MDA-MB-231 breast. For the same molecule, the GI50 in the assay on MDA-MB-435 is 39.4 µM; in the assay with NCI-H460 lung it was 30 µM; in the assay with SF-539 CNS it was 39.2 µM; in the assay with SW-620 colon it was 48.3 µM. Also, the TGI with 786-0 renal, with A549 NSCLC, in the assay on ACHN renal, in the assay with CCRF-CEM leukemia, in the assay on K-562 leukemia and in the assay with MDA-MB-231 breast was > 100 µM each time. The TGI with MDA-MB-435, in the assay with NCI-H460 lung, in the assay on SF-539 CNS and with SW-620 colon was > 100 µM in each case.

As for `S=C(Nc1ccccc1)c1ccccn1`, the GI50 in the assay on 786-0 renal is > 100 µM; with A549 NSCLC it was > 100 µM; in the assay on ACHN renal it was 50.6 µM; with CCRF-CEM leukemia, 3.97 µM; with K-562 leukemia, 48.4 µM; with MDA-MB-231 breast, 51.2 µM. The GI50 with MDA-MB-435 is 80.6 µM; with NCI-H460 lung it was 63.2 µM; in the assay on SF-539 CNS it was > 100 µM; with SW-620 colon it was 59.4 µM. In addition, the TGI with 786-0 renal was > 100 µM; in the assay with A549 NSCLC, > 100 µM; in the assay with ACHN renal it was > 100 µM; with CCRF-CEM leukemia, 40.4 µM; in the assay on K-562 leukemia, > 100 µM; in the assay with MDA-MB-231 breast, > 100 µM. Also, the TGI with MDA-MB-435, in the assay on NCI-H460 lung, in the assay with SF-539 CNS and in the assay with SW-620 colon was > 100 µM in each case.

For the molecule `Cn1c2ccccc2c2c(=O)n(CCCC(=O)NCC(=O)OC(=NC3CCCCC3)NC3CCCCC3)c3c(-c4ccccc4)nnn3c21`, the GI50 in the assay with 786-0 renal was 18.5 µM; with A549 NSCLC, 38 µM; in the assay with ACHN renal, 26.3 µM; in the assay with CCRF-CEM leukemia, 8.36 µM; in the assay on K-562 leukemia, 23 µM; in the assay with MDA-MB-231 breast it was 12.4 µM. Further, the GI50 in the assay on MDA-MB-435 was 25.3 µM; in the assay on NCI-H460 lung it was 32 µM; in the assay with SF-539 CNS, 19.9 µM; in the assay with SW-620 colon, 3.76 µM. For the same molecule, the TGI in the assay with 786-0 renal is 45.1 µM; in the assay with A549 NSCLC, > 100 µM; in the assay with ACHN renal, > 100 µM; in the assay on CCRF-CEM leukemia, 57.7 µM; with K-562 leukemia, > 100 µM; with MDA-MB-231 breast, 37.7 µM. Besides, the TGI was > 100 µM in the assay on MDA-MB-435, > 100 µM in the assay on NCI-H460 lung, 58.1 µM in the assay on SF-539 CNS and > 100 µM in the assay on SW-620 colon.

Turning to `CN(C)c1cccc2[nH]c(-c3[nH]ncc3Nc3ccnc(N)n3)nc12`, the GI50 in the assay on 786-0 renal is 0.0247 µM; with A549 NSCLC it was 0.0331 µM; in the assay on ACHN renal it was 0.0165 µM; in the assay with CCRF-CEM leukemia, < 0.0118 µM; with K-562 leukemia, 0.0167 µM; with MDA-MB-231 breast, 0.0233 µM. In addition, the GI50 with MDA-MB-435 was 0.0237 µM; with NCI-H460 lung, 0.054 µM; in the assay with SF-539 CNS it was < 0.0118 µM; in the assay on SW-620 colon, < 0.0141 µM. The TGI with 786-0 renal was determined as 1.13 µM; in the assay on A549 NSCLC, 1.15 µM; in the assay on ACHN renal, 0.679 µM; in the assay with CCRF-CEM leukemia, 4.48 µM; with K-562 leukemia, 1.52 µM; in the assay with MDA-MB-231 breast, 0.141 µM. For the same molecule, the TGI with MDA-MB-435 amounted to 0.719 µM; in the assay with NCI-H460 lung, 1.05 µM; with SF-539 CNS it was 0.0608 µM; with SW-620 colon, 1.22 µM.

`Cn1cnc2c(F)c(Nc3ccc(Br)cc3Cl)c(C(=O)NOCCO)cc21`: the GI50 in the assay on 786-0 renal was > 10 µM and 60.6 µM; in the assay with A549 NSCLC it was 6.85 µM and 10.8 µM; with ACHN renal it was 9.92 µM and 29 µM; with CCRF-CEM leukemia, > 94.6 µM; in the assay on K-562 leukemia it was > 10 µM and 12.3 µM; with MDA-MB-231 breast it was 0.822 µM and 1.94 µM. For the same molecule, the GI50 in the assay with MDA-MB-435 was 0.0709 µM and 0.0294 µM; with NCI-H460 lung, > 10 µM and 32.3 µM; with SF-539 CNS, > 10 µM and 22.4 µM; with SW-620 colon it was 0.0436 µM and 0.0226 µM. Besides, the TGI with 786-0 renal, with A549 NSCLC, with ACHN renal, in the assay with CCRF-CEM leukemia, in the assay with K-562 leukemia and in the assay with MDA-MB-231 breast was > 100 µM throughout. Besides, the TGI in the assay on MDA-MB-435, in the assay on NCI-H460 lung, in the assay with SF-539 CNS and in the assay with SW-620 colon was > 100 µM in each case.

Regarding `Nc1nc(-n2cccn2)nc(-n2cccn2)c1Br`, the GI50 in the assay on 786-0 renal, in the assay on A549 NSCLC, with ACHN renal, with CCRF-CEM leukemia, in the assay with K-562 leukemia and in the assay with MDA-MB-231 breast was > 100 µM each time. The GI50 in the assay with MDA-MB-435, in the assay with NCI-H460 lung, with SF-539 CNS and with SW-620 colon was > 100 µM throughout. Moreover, the TGI with 786-0 renal, in the assay on A549 NSCLC, with ACHN renal, in the assay with CCRF-CEM leukemia, in the assay on K-562 leukemia and with MDA-MB-231 breast was > 100 µM in each case. Moreover, the TGI in the assay on MDA-MB-435, with NCI-H460 lung, with SF-539 CNS and in the assay with SW-620 colon was > 100 µM each time.

For the origin of these results see PubChem BioAssay (NCI).
